According to patent publication US8282916B2, “Tumor therapy with replication competent sindbis viral vectors” (New York University, priority 2008, dated 2012):
“Also recorded” adds a separate entry of the source.

Test system: ES-2/Fluc ovarian cancer cells
Assay: ES-2/Fluc ovarian cancer model in SCID mice: whole body bioluminescence after daily i.p. RD-Sindbis/tk and GCV
Assay type: in vivo
Source text: In the example below, SCID mice were intraperitoneally implanted with ES2 human ovarian cancer cells. In order to track and monitor disease progression, the ES2 cells were genetically engineered to express a firefly luciferase gene for bioluminescent imaging. Therefore, the bioluminescent signal intensity is proportional to the tumor load in these animals (FIG. 3B). Tumor-bearing mice were either mock treated or received daily treatments with a conventional RD-Sindbis/HSVtk vector.
An ES-2/Fluc ovarian cancer model was used to test if the HSVtk suicide gene enhanced the therapeutic effects of Sindbis vectors. […] SCID mice were inoculated with ES-2/Fluc on day 0. Daily GDEPT treatments involving i.p. injections of RD-Sindbis/tk and GCV (25 mg/Kg of body weight) were started on day 3. The Sindbis/tk −GCV group (n=5) received Sindbis/tk treatments but no GCV. The Sindbis/tk +GCV group (n=5) received both Sindbis/tk and GCV treatments. The Control group (n=5) was neither treated with Sindbis/tk nor GCV. The Control +GCV group (n=5) received no Sindbis/tk but was treated with GCV. Disease progression was monitored and the whole body photon counts were determined using the IVIS® system on days 1, 3, 6, 8, 12 and 14.

Nc1nc(O)c2ncn(COC(CO)CO)c2n1 [GCV, ganciclovir]
effect of prodrug on tumor growth / tumor killing together with vector (GCV 25 mg/Kg daily i.p. together with daily i.p. RD-Sindbis/HSVtk from day 3): significantly improved anti-tumor efficacy; also recorded: dramatically enhanced the Sindbis HSVtk vector treatments and suppressed tumor growth; also recorded: enhanced the killing of Sindbis/tk-infected ES-2/Fluc cells in vivo | therapeutic effect on tumor loading (GCV 25 mg/Kg daily i.p. without HSVtk expression (no Sindbis/tk)): no therapeutic effect
